Reference: ChEMBL document CHEMBL4002577, “Phenylthiazole antibiotics: A metabolism-guided approach to overcome short duration of action” (Eur J Med Chem, 2017)
Converted amounts (≈) assume the structure as drawn. The source made the active and inactive calls. No cut-off for these calls is given here.

Tests used:
[1] = test system: Staphylococcus aureus; assay: Bactericidal activity against methicillin/ciprofloxacin/clindamycin-resistant Staphylococcus aureus USA100 NRS382 clinical isolate after 24 hrs; format: functional; details: USA100 NRS382, 24 h
[2] = test system: Staphylococcus aureus; assay: Bactericidal activity against mupirocin/rifampicin-resistant Staphylococcus aureus RN4220 NRS107 clinical isolate after 24 hrs; format: functional; details: RN4220 NRS107, 24 h
[3] = test system: Staphylococcus aureus; assay: Bactericidal activity against methicillin/erythromycin/tetracycline-resistant Staphylococcus aureus USA300 NRS384 clinical isolate after 24 hrs; format: functional; details: USA300 NRS384, 24 h
[4] = test system: Staphylococcus aureus; assay: Antibacterial activity against methicillin-resistant Staphylococcus aureus USA400 NRS123 clinical isolate infected in mouse J774 cells assessed as reduction of bacterial load at 16 ug/ml after 24 hrs relative to control; format: functional
[5] = test system: Staphylococcus aureus; assay: Antibacterial activity against vancomycin-resistant Staphylococcus aureus VRSA4 clinical isolate after 18 to 20 hrs by broth microdilution method; format: functional
[6] = test system: Staphylococcus aureus; assay: Bactericidal activity against methicillin-resistant Staphylococcus aureus USA400 NRS123 clinical isolate assessed as reduction of bacterial load at 4 times MIC after 24 hrs by time kill assay; format: functional
[7] = test system: Staphylococcus aureus; assay: Bactericidal activity against methicillin-resistant Staphylococcus aureus USA400 NRS123 clinical isolate after 24 hrs; format: functional; details: USA400 NRS123, 24 h
[8] = test system: Staphylococcus aureus; assay: Antibacterial activity against methicillin-resistant Staphylococcus aureus 2658 RCMB after 18 to 20 hrs by broth microdilution method; format: functional
[9] = test system: Staphylococcus aureus; assay: Antibacterial activity against vancomycin-resistant Staphylococcus aureus VRSA10 clinical isolate after 18 to 20 hrs by broth microdilution method; format: functional
[10] = test system: Staphylococcus aureus; assay: Bactericidal activity against vancomycin-resistant Staphylococcus aureus VRSA4 clinical isolate after 24 hrs; format: functional; details: VRSA4, 24 h
[11] = test system: Staphylococcus aureus; assay: Bactericidal activity against methicillin/ciprofloxacin/gentamicin/clindamycin-resistant Staphylococcus aureus USA200 NRS383 clinical isolate after 24 hrs; format: functional; details: USA200 NRS383, 24 h
[12] = test system: Staphylococcus aureus; assay: Antibacterial activity against methicillin/ciprofloxacin/clindamycin-resistant Staphylococcus aureus USA100 NRS382 clinical isolate after 18 to 20 hrs by broth microdilution method; format: functional
[13] = test system: Staphylococcus aureus; assay: Bactericidal activity against vancomycin-resistant Staphylococcus aureus VRSA10 clinical isolate after 24 hrs; format: functional; details: VRSA10, 24 h
[14] = test system: Staphylococcus aureus; assay: Antibacterial activity against methicillin-resistant Staphylococcus aureus USA400 NRS123 clinical isolate after 18 to 20 hrs by broth microdilution method; format: functional
[15] = test system: Staphylococcus aureus; assay: Antibacterial activity against mupirocin/rifampicin-resistant Staphylococcus aureus RN4220 NRS107 clinical isolate after 18 to 20 hrs by broth microdilution method; format: functional
[16] = test system: Staphylococcus aureus; assay: Antibacterial activity against methicillin/erythromycin/tetracycline-resistant Staphylococcus aureus USA300 NRS384 clinical isolate after 18 to 20 hrs by broth microdilution method; format: functional
[17] = test system: Staphylococcus aureus; assay: Antibacterial activity against methicillin/ciprofloxacin/gentamicin/clindamycin-resistant Staphylococcus aureus USA200 NRS383 clinical isolate after 18 to 20 hrs by broth microdilution method; format: functional
[18] = test system: Staphylococcus aureus; assay: Bactericidal activity against methicillin-resistant Staphylococcus aureus USA400 NRS123 clinical isolate assessed as reduction of bacterial load at 4 times MIC after 48 hrs by time kill assay; format: functional
[19] = test system: Staphylococcus aureus; assay: Bactericidal activity against methicillin-resistant Staphylococcus aureus USA400 NRS123 clinical isolate assessed as time required to reduce 4 log10CFU of bacterial load at 4 times MIC by time kill assay; format: functional
[20] = test system: HaCaT; assay: Cytotoxicity against human HaCaT cells assessed as decrease in cell viability up to 16 ug/ml after 2 hrs by MTS assay; format: cell-based
[21] = Half life in human liver microsomes after 10 to 60 mins in absence of NADPH by LC/MS/MS analysis; format: ADME, microsome
[22] = Intrinsic clearance in human liver microsomes after 10 to 60 mins in absence of NADPH by LC/MS/MS analysis; format: ADME, microsome; details: read-out: CLH
[23] = Half life in human liver microsomes after 10 to 60 mins in presence of NADPH by LC/MS/MS analysis; format: ADME, microsome
[24] = Intrinsic clearance in human liver microsomes after 10 to 60 mins in presence of NADPH by LC/MS/MS analysis; format: ADME, microsome; details: read-out: CLH

SMILES | MBC [1] [µg/mL] | MBC [2] [µg/mL] | MBC [3] [µg/mL] | MIC [5] [µg/mL] | MBC [7] [µg/mL] | MIC [8] [µg/mL] | MIC [9] [µg/mL] | MBC [10] [µg/mL] | MBC [11] [µg/mL] | MIC [12] [µg/mL] | MBC [13] [µg/mL] | MIC [14] [µg/mL] | MIC [15] [µg/mL] | MIC [16] [µg/mL] | MIC [17] [µg/mL] | also measured
CN[C@H](CC(C)C)C(=O)N[C@H]1C(=O)N[C@@H](CC(N)=O)C(=O)N[C@H]2C(=O)N[C@H]3C(=O)N[C@H](C(=O)N[C@H](C(=O)O)c4cc(O)cc(O)c4-c4cc3ccc4O)[C@H](O)c3ccc(c(Cl)c3)Oc3cc2cc(c3O[C@@H]2O[C@H](CO)[C@@H](O)[C@H](O)[C@H]2O[C@H]2C[C@](C)(N)[C@H](O)[C@H](C)O2)Oc2ccc(cc2Cl)[C@H]1O [VANCOMYCIN] | < 1 | 1 (≈ 0.69 µM) | 1 (≈ 0.69 µM) | > 512 | 0.5 (≈ 0.345 µM) | 1.95 (≈ 1.35 µM) | > 512 | > 512 | 0.5 (≈ 0.345 µM) | < 1 | > 512 | – | – | – | – | Activity [4]: inactive; Activity [6]: Active
C/C(=N\NC(=N)N)c1sc(-c2ccc(OCC3CCC3)cc2)nc1C | – | – | – | – | – | > 30 | – | – | – | – | – | – | – | – | – | –
CCCCCCCCCOc1ccc(-c2nc(C)c(/C(C)=N/NC(=N)N)s2)cc1 | 8 (≈ 19.2 µM) | 16 (≈ 38.5 µM) | 16 (≈ 38.5 µM) | 16 (≈ 38.5 µM) | 16 (≈ 38.5 µM) | > 30 | 16 (≈ 38.5 µM) | 16 (≈ 38.5 µM) | 8 (≈ 19.2 µM) | – | 16 (≈ 38.5 µM) | 16 (≈ 38.5 µM) | 16 (≈ 38.5 µM) | 16 (≈ 38.5 µM) | 4 (≈ 9.62 µM) | –
CCCOc1ccc(-c2nc(C)c(/C(C)=N/NC(=N)N)s2)cc1 | – | – | – | – | – | > 30 | – | – | – | – | – | – | – | – | – | –
CCCCCCCCOc1ccc(-c2nc(C)c(/C(C)=N/NC(=N)N)s2)cc1 | 2 (≈ 4.98 µM) | 8 (≈ 19.9 µM) | 4 (≈ 9.96 µM) | 4 (≈ 9.96 µM) | 8 (≈ 19.9 µM) | 15.6 (≈ 38.9 µM) | 4 (≈ 9.96 µM) | 4 (≈ 9.96 µM) | 2 (≈ 4.98 µM) | 2 (≈ 4.98 µM) | 4 (≈ 9.96 µM) | 4 (≈ 9.96 µM) | 4 (≈ 9.96 µM) | 4 (≈ 9.96 µM) | 1 (≈ 2.49 µM) | Activity [18]: Active; Time [19]: <=2 hr; Activity [20]: Non-Toxic
C/C(=N\NC(=N)N)c1sc(-c2ccc(OCCC(C)C)cc2)nc1C | 8 (≈ 22.3 µM) | 16 (≈ 44.5 µM) | 32 (≈ 89 µM) | 16 (≈ 44.5 µM) | > 32 | 7.81 (≈ 21.7 µM) | 16 (≈ 44.5 µM) | 32 (≈ 89 µM) | 16 (≈ 44.5 µM) | 8 (≈ 22.3 µM) | 32 (≈ 89 µM) | 16 (≈ 44.5 µM) | 16 (≈ 44.5 µM) | 16 (≈ 44.5 µM) | 8 (≈ 22.3 µM) | –
CCCCOc1ccc(-c2nc(C)c(/C(C)=N/NC(=N)N)s2)cc1 | > 128 | – | – | – | – | 15.6 (≈ 45.2 µM) | – | – | > 64 | 32 (≈ 92.6 µM) | – | – | – | – | 32 (≈ 92.6 µM) | half-life [21]: > 4 h; microsomal CLint [22]: < 9.6 µL/min/mg; half-life [23]: > 4 h; microsomal CLint [24]: < 9.6 µL/min/mg
C/C=C/COc1ccc(-c2nc(C)c(/C(C)=N/NC(=N)N)s2)cc1 | 128 (≈ 373 µM) | 32 (≈ 93.2 µM) | > 32 | 32 (≈ 93.2 µM) | > 32 | 15.6 (≈ 45.5 µM) | 32 (≈ 93.2 µM) | 32 (≈ 93.2 µM) | > 64 | 16 (≈ 46.6 µM) | 32 (≈ 93.2 µM) | 32 (≈ 93.2 µM) | 32 (≈ 93.2 µM) | 32 (≈ 93.2 µM) | 16 (≈ 46.6 µM) | –
C/C(=N\NC(=N)N)c1sc(-c2ccc(OCC(C)C)cc2)nc1C | 16 (≈ 46.3 µM) | 32 (≈ 92.6 µM) | 32 (≈ 92.6 µM) | 16 (≈ 46.3 µM) | > 32 | 15.6 (≈ 45.2 µM) | 16 (≈ 46.3 µM) | 32 (≈ 92.6 µM) | 8 (≈ 23.2 µM) | 8 (≈ 23.2 µM) | 32 (≈ 92.6 µM) | 16 (≈ 46.3 µM) | 32 (≈ 92.6 µM) | 16 (≈ 46.3 µM) | 8 (≈ 23.2 µM) | –
